Each structure is given as a SMILES string.

The values below come from the supplement of paper PMC10307832.

One experiment relates to LCLC-103H. Description: relative viability (nuclei count vs DMSO), 5 days (fraction); higher = more cells survive. As to conditions: first compound 0.8 µM. In a few lines:
(§1)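 Relative viability is defined as nuclei in treated wells over nuclei in vehicle wells. Duplicate plates were run and medians reported. Lung cancer cell lines in 1536-well plates were dosed by pin tool one day after seeding, with one drug or with a fixed anchor-drug dose plus five library-drug doses (not always all listed) in √10 steps, and nuclei were counted after 5 days.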
In the case of `CCCCCCCCCCCC1=C(O)C(=O)C=C(O)C1=O` [Embelin] + N=C(N)NC(=N)NCCc1ccccc1 [Phenformin] (partner 250 µM), the relative viability was 0.343.
Same read-out and setting: under `CCCCCCCCCCCC1=C(O)C(=O)C=C(O)C1=O` [Embelin] + O=C(c1cc(Cc2n[nH]c(=O)c3ccccc23)ccc1F)N1CCN(C(=O)C2CC2)CC1 [Olaparib] (partner 8 µM) stands 0.796.
On the same count and under the same terms, next, `CCCCCCCCCCCC1=C(O)C(=O)C=C(O)C1=O` [Embelin] + CC(=O)Nc1cccc(-n2c(=O)n(C3CC3)c(=O)c3c(Nc4ccc(I)cc4F)n(C)c(=O)c(C)c32)c1 [Trametinib] (partner 0.02 µM): 0.742; `CCCCCCCCCCCC1=C(O)C(=O)C=C(O)C1=O` [Embelin] + Nc1ncn([C@H]2C[C@H](O)[C@@H](CO)O2)c(=O)n1 [Decitabine] (partner 2 µM): 0.755.
Still for that read-out and setting: under `CCCCCCCCCCCC1=C(O)C(=O)C=C(O)C1=O` [Embelin] + NC(=O)Nc1cc(-c2cccc(F)c2)sc1C(=O)N[C@H]1CCCNC1 [AZD7762] (partner 0.2 µM) stands 0.866.

The experiment is the same for the next values; noted with them: first compound 2.53 µM.
On to `CCCCCCCCCCCC1=C(O)C(=O)C=C(O)C1=O` [Embelin] + N=C(N)NC(=N)NCCc1ccccc1 [Phenformin] (partner 250 µM), for which the relative viability is 0.367.
On the same count and under the same terms, under `CCCCCCCCCCCC1=C(O)C(=O)C=C(O)C1=O` [Embelin] + O=C(c1cc(Cc2n[nH]c(=O)c3ccccc23)ccc1F)N1CCN(C(=O)C2CC2)CC1 [Olaparib] (partner 8 µM) stands 0.802.
Consider `CCCCCCCCCCCC1=C(O)C(=O)C=C(O)C1=O` [Embelin] + CC(=O)Nc1cccc(-n2c(=O)n(C3CC3)c(=O)c3c(Nc4ccc(I)cc4F)n(C)c(=O)c(C)c32)c1 [Trametinib] (partner 0.02 µM), for which the relative viability worked out at 0.674.
On the same count and under the same terms, next, `CCCCCCCCCCCC1=C(O)C(=O)C=C(O)C1=O` [Embelin] + Nc1ncn([C@H]2C[C@H](O)[C@@H](CO)O2)c(=O)n1 [Decitabine] (partner 2 µM): 0.737; `CCCCCCCCCCCC1=C(O)C(=O)C=C(O)C1=O` [Embelin] + NC(=O)Nc1cc(-c2cccc(F)c2)sc1C(=O)N[C@H]1CCCNC1 [AZD7762] (partner 0.2 µM): 0.886.

Still in this experiment, the particulars now being: first compound 8 µM.
`CCCCCCCCCCCC1=C(O)C(=O)C=C(O)C1=O` [Embelin] + N=C(N)NC(=N)NCCc1ccccc1 [Phenformin] (partner 250 µM) registered a relative viability of 0.286.
Still for that read-out and setting: under `CCCCCCCCCCCC1=C(O)C(=O)C=C(O)C1=O` [Embelin] + O=C(c1cc(Cc2n[nH]c(=O)c3ccccc23)ccc1F)N1CCN(C(=O)C2CC2)CC1 [Olaparib] (partner 8 µM) stands 0.764; under `CCCCCCCCCCCC1=C(O)C(=O)C=C(O)C1=O` [Embelin] + CC(=O)Nc1cccc(-n2c(=O)n(C3CC3)c(=O)c3c(Nc4ccc(I)cc4F)n(C)c(=O)c(C)c32)c1 [Trametinib] (partner 0.02 µM), 0.698; under `CCCCCCCCCCCC1=C(O)C(=O)C=C(O)C1=O` [Embelin] + Nc1ncn([C@H]2C[C@H](O)[C@@H](CO)O2)c(=O)n1 [Decitabine] (partner 2 µM), 0.718.
On the same count and under the same terms, under `CCCCCCCCCCCC1=C(O)C(=O)C=C(O)C1=O` [Embelin] + NC(=O)Nc1cc(-c2cccc(F)c2)sc1C(=O)N[C@H]1CCCNC1 [AZD7762] (partner 0.2 µM) stands 0.684.

The test system of a further experiment is LK-2. Described as above. As to conditions: first compound 0.08 µM. In a few lines:
as §1
With `CCCCCCCCCCCC1=C(O)C(=O)C=C(O)C1=O` [Embelin] + N=C(N)NC(=N)NCCc1ccccc1 [Phenformin] (partner 250 µM), the relative viability is 0.626.
On the same count and under the same terms, next, `CCCCCCCCCCCC1=C(O)C(=O)C=C(O)C1=O` [Embelin] + O=C(c1cc(Cc2n[nH]c(=O)c3ccccc23)ccc1F)N1CCN(C(=O)C2CC2)CC1 [Olaparib] (partner 8 µM): 0.72.
On the same count and under the same terms, next, `CCCCCCCCCCCC1=C(O)C(=O)C=C(O)C1=O` [Embelin] + CC(=O)Nc1cccc(-n2c(=O)n(C3CC3)c(=O)c3c(Nc4ccc(I)cc4F)n(C)c(=O)c(C)c32)c1 [Trametinib] (partner 0.02 µM): 0.793; `CCCCCCCCCCCC1=C(O)C(=O)C=C(O)C1=O` [Embelin] + Nc1ncn([C@H]2C[C@H](O)[C@@H](CO)O2)c(=O)n1 [Decitabine] (partner 2 µM): 0.287; `CCCCCCCCCCCC1=C(O)C(=O)C=C(O)C1=O` [Embelin] + NC(=O)Nc1cc(-c2cccc(F)c2)sc1C(=O)N[C@H]1CCCNC1 [AZD7762] (partner 0.2 µM): 0.497.

The same experiment, now with this note: first compound 0.8 µM.
Consider `CCCCCCCCCCCC1=C(O)C(=O)C=C(O)C1=O` [Embelin] + N=C(N)NC(=N)NCCc1ccccc1 [Phenformin] (partner 250 µM), for which the relative viability amounted to 0.278.
On the same count and under the same terms, next, `CCCCCCCCCCCC1=C(O)C(=O)C=C(O)C1=O` [Embelin] + O=C(c1cc(Cc2n[nH]c(=O)c3ccccc23)ccc1F)N1CCN(C(=O)C2CC2)CC1 [Olaparib] (partner 8 µM): 0.515; `CCCCCCCCCCCC1=C(O)C(=O)C=C(O)C1=O` [Embelin] + CC(=O)Nc1cccc(-n2c(=O)n(C3CC3)c(=O)c3c(Nc4ccc(I)cc4F)n(C)c(=O)c(C)c32)c1 [Trametinib] (partner 0.02 µM): 1.02; `CCCCCCCCCCCC1=C(O)C(=O)C=C(O)C1=O` [Embelin] + Nc1ncn([C@H]2C[C@H](O)[C@@H](CO)O2)c(=O)n1 [Decitabine] (partner 2 µM): 0.348.
On the same count and under the same terms, under `CCCCCCCCCCCC1=C(O)C(=O)C=C(O)C1=O` [Embelin] + NC(=O)Nc1cc(-c2cccc(F)c2)sc1C(=O)N[C@H]1CCCNC1 [AZD7762] (partner 0.2 µM) stands 0.543.

Still in this experiment, the particulars now being: first compound 2.53 µM.
Turning to `CCCCCCCCCCCC1=C(O)C(=O)C=C(O)C1=O` [Embelin] + N=C(N)NC(=N)NCCc1ccccc1 [Phenformin] (partner 250 µM), the relative viability worked out at 0.735.
Still for that read-out and setting: under `CCCCCCCCCCCC1=C(O)C(=O)C=C(O)C1=O` [Embelin] + O=C(c1cc(Cc2n[nH]c(=O)c3ccccc23)ccc1F)N1CCN(C(=O)C2CC2)CC1 [Olaparib] (partner 8 µM) stands 0.686; under `CCCCCCCCCCCC1=C(O)C(=O)C=C(O)C1=O` [Embelin] + CC(=O)Nc1cccc(-n2c(=O)n(C3CC3)c(=O)c3c(Nc4ccc(I)cc4F)n(C)c(=O)c(C)c32)c1 [Trametinib] (partner 0.02 µM), 0.945; under `CCCCCCCCCCCC1=C(O)C(=O)C=C(O)C1=O` [Embelin] + Nc1ncn([C@H]2C[C@H](O)[C@@H](CO)O2)c(=O)n1 [Decitabine] (partner 2 µM), 0.406.
As to `CCCCCCCCCCCC1=C(O)C(=O)C=C(O)C1=O` [Embelin] + NC(=O)Nc1cc(-c2cccc(F)c2)sc1C(=O)N[C@H]1CCCNC1 [AZD7762] (partner 0.2 µM), the relative viability came out at 0.497.
